For data set [1], the system named is NCI panel of 60 cell lines. The data set can be described thus: cells. The method, boiled down:
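Cells in RPMI-1640/10% FCS plated at 5,000–40,000 cells/well, preincubated 24 h at 37° C, 5% CO2, then exposed 48 h to compound at 5 doses spanning 4 logs. Viability by sulforhodamine B total-protein staining after cold TCA fixation; absorbance read at 515 nm.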

The target in the next data set is T1, Casein Kinase 1 (yeast) (Schizosaccharomyces pombe, UniProt P40233).
T1 construct: purchased Upstate 14-112
The data set can be described thus: CK1-Yeast kinase assay (A37 assay). The data set is classed as biochemical, S. pombe. The procedure:
• 1. Assay Dilution Buffer I (ADBI, Catalog #20-108): 20 mM MOPS, pH 7.2, 25 mM β-glycerol • phosphate, 5 mM EGTA, 1 mM sodium orthovanadate, 1 mM dithiothreitol. • 2. Casein Kinase 1, active: Dilute to 10-50 ng/μl. Use 10 μl (100-500 ng) per assay point. • 3. Casein Kinase 1 Substrate Peptide (Catalog #12-423): Prepare a 1 mM sock in ADBI. Use 10 μl per assay for a final concentration of 250 μM per assay point. • 4. [γ-^32P]ATP: Stock 1 mCi/100 μl (3000 Ci/mmol, obtained from Perkin Elmer, Cat. # BLU002A). Make 10 μl aliquots (100 μCi/vial). Before starting the assay, dilute an aliquot with 90 μl of 500 μM cold ATP and 75 mM magnesium chloride in ADBI.
• 1. Add 10 μl of ADBI to a microcentrifuge tube. • 2. Add 10 μl of Casein Kinase 1, active (100-500 ng). • 3. Add 10 μl (250 μM) Casein Kinase 1 Substrate Peptide. • 4. Add 10 μl of diluted [γ-^32P]ATP mixture. • 5. Incubate for 10 minutes at in a shaking incubator at 30° C. • 6. Transfer 25 μl onto the center of a 2 cm×2 cm P81 paper. • 7. Wash the assay squares three times with 0.75% phosphoric acid. • 8. Wash the assay squares once with acetone. • 9. Transfer the assay squares to a scintillation vial and add 5 ml scintillation cocktail. • 10. Read in scintillation counter. Compare cpm of enzyme samples to cpm of control samples that contain no enzyme (background control).

Data set [2] deals with Rb phosphorylation at Serine-780. The data set can be described thus: Rb phosphorylation. The format is cell-based.
A further data set can be described thus: Aqueous solubility. Conditions: water (aqueous solution). The format is physicochemical.
Another data set deals with HT29. The data set can be described thus: SRB cytotoxicity, HT29 parental cells. The format is cell-based. Conditions: Homo sapiens, HT-29, 72 h. How it is done:
In these experiments, the P-glycoprotein expressing NCI-Adr resistant subline (Vickers et al., 1989. Mol Endocrinology 3 (1):157-164) was used. […] Briefly, cells were plated in 96 well dishes 24 hours prior to compound addition. Where noted, they were exposed to verapamil for 4 hours prior to compound addition and then throughout the treatment period (72 hours). The assay was terminated with the addition of cold TCA to a final concentration of 10% and the plates were incubated for one hour at 4° C. The plates were then washed 5 times with water and 100 μl of a Sulforhodamine B solution (4%) was added to each well. The plate was then incubated for 10 minutes at room temperature before removal of unbound dye by washing with 1% acetic acid.
The parental non-mutated cell line HT29 was used as a control.
Z. Cytotoxicity was measured using the SRB assay according to Shekan et al. as described above in Example 1A.

In brackets after ≈: the same amount, converted by molar mass. Structures can show the parent of a compound that is named as a salt.

T1 sequence (P40233 1-298 limits assumed): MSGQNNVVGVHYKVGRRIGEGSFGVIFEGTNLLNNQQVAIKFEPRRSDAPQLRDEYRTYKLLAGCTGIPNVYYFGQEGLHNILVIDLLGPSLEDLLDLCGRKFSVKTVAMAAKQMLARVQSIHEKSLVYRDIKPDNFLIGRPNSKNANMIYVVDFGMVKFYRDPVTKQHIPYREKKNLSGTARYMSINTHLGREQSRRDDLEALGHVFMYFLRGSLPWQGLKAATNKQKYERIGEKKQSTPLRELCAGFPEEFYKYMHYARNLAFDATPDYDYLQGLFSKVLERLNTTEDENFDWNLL

The term IC50 denotes the midpoint of a concentration-inhibition curve. What is called solubility is how much of the substance goes into solution per volume. Lower therefore signals a poorly soluble substance. Regarding `CC(C)N1CCN(C(=O)COc2ccc(-c3n[nH]c4c3C(=O)c3c(NC(=O)NN5CCOCC5)cccc3-4)cc2)CC1` [Compound A37], in data set [1], the “NCI assay Ave TGI” value was found to be 2.06 µM. Further, the IC50 against Casein Kinase 1 (yeast) (CK1 IC50 (A37), kinase panel, 10 μM ATP) is less than 3 nM; against Casein Kinase 1 (yeast) (CSNK1A1 (CK1) Inhibition (IC50), A37, S. pombe CK1 (*)), less than 5 nM. Besides, in data set [2], the “Rb phosphorylation at Serine-780” value is given as “inhibits Rb phosphorylation at Serine-780”. Besides, the solubility in the data set “Aqueous solubility” was in the range of 15 to 20 mg/mL (≈ 26.1 to 34.9 mM).

As for `COCCN1CCN(Cc2ccc(-c3n[nH]c4c3C(=O)c3c(NC(=O)NN5CCOCC5)cccc3-4)cc2)CC1` [Compound B16, N-[3-(4-{[4-(2-methoxyethyl)piperazinyl]methyl}phenyl)-4-oxoindeno[2,3-d]pyrazol-5-yl](morpholin-4-ylamino)carboxamide dihydrochloride], the IC50 in the data set on HT29 was 77 nM.

The values are drawn from US20080146555A1, “Uses of Kinase Inhibitors and Compositions Thereof” (GPC Biotech, Inc, priority 2004, published 2008).
